This test relates to Acinetobacter baumannii ATCC17978. As to the kind of experiment: Antimicrobial susceptibility testing: 90% growth inhibitory concentration (IC90) determination, Iso-Sensitest broth. The test is classed as cell-based. In a few lines:
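A. baumannii ATCC17978 grown in Iso-Sensitest broth across 10 compound concentrations at 35±2 °C.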

Setting [1] is: Acinetobacter baumannii, ATCC17978, 16 h, read-out: ATCC17978 IC90, 90% growth inhibitory concentration, Acinetobacter baumannii ATCC17978, Iso-Sensitest broth, OD 600 nm over 16 h.
Setting [2] is: 90% growth inhibitory concentration, Acinetobacter baumannii ATCC17978, Iso-Sensitest broth, OD 600 nm over 16 h, read-out: ATCC17978 IC90.

Where a name gives a salt, the structure may show the parent alone. Read-outs that look alike come from different tables or passages of the source.

This note sets out measurements from patent US20230011869A1 (Hoffmann-La Roche Inc., priority 2018, published 2023).

As for `COc1ccc(-c2cnc3c(Nc4ccc(C(=O)N5CCC(C(=O)N6CC7(CNC7)C6)CC5)c(C)c4)nccn23)cc1F` [Example 400, [4-(2,6-diazaspiro[3.3]heptane-2-carbonyl)piperidin-1-yl]-[4-[[3-(3-fluoro-4-methoxyphenyl)imidazo[1,2-a]pyrazin-8-yl]amino]-2-methylphenyl]methanone; 2,2,2-trifluoroacetic acid], under setting [1], the IC90 is 390 nM.
As for `Cc1cc(Nc2nccn3c(-c4ccc(OC(F)F)cc4)cnc23)ccc1C(=O)N1CCN(C(=O)[C@H]2CNCCO2)CC1` [Example 315, [4-[[3-[4-(difluoromethoxy)phenyl]imi-dazo[1,2-a]pyrazin-8-yl]amino]-2-methylphenyl]-[4-[(2R)-morpholine-2-carbonyl]piperazin-1-yl]methanone; hydrochloride], the IC90 under setting [1] turned out to be 240 nM.
For the molecule `COc1ccc(-c2cnc3c(Nc4ccc(C(=O)N5CCN(C(=O)N6CCO[C@@H](CN)C6)CC5)c(C)c4)nccn23)c(Cl)c1F` [Example 484, [4-[(2S)-2-(aminomethyl)morpholine-4-carbonyl]piperazin-1-yl]-[4-[[3-(2-chloro-3-fluoro-4-methoxyphenyl)imidazo[1,2-a]pyrazin-8-yl]amino]-2-methylphenyl]methanone; for-mic acid], the IC90 under setting [2] was 180 nM.
Regarding `Cc1cc(Nc2nccn3c(-c4ccc(OC(F)F)cc4)cnc23)ccc1C(=O)N1CCN(C(=O)C2CCNCC2F)CC1` (stereo not shown) [Example 502, [4-[[3-[4-(difluoromethoxy)phenyl]imi-dazo[1,2-a]pyrazin-8-yl]amino]-2-methylphenyl]-[4-(3-fluoropiperidine-4-carbonyl)piperazin-1-yl]methanone; hydrochloride], the IC90 under setting [1] turned out to be 470 nM.
With `Cc1cc(Nc2nccn3c(-c4ccc(OC(F)F)cc4)cnc23)ccc1C(=O)N1CCC2(CCNCC2)C1` [Example 381, 2,8-diazaspiro[4.5]decan-2-yl-[4-[[3-[4-(difluoromethoxy)phenyl]imi-dazo[1,2-a]pyrazin-8-yl]amino]-2-methylphenyl]methanone; hy-drochloride], the IC90 under setting [1] is 2900 nM.
As to `Cc1cc(Nc2nccn3c(-c4ccc(OC(F)F)cc4)cnc23)ccc1C(=O)N1CCN(C(=O)C2CNC2)CC1` [Example 335, [4-(azetidine-3-carbonyl)piperazin-1-yl]-[4-[[3-[4-(difluoromethoxy)phenyl]imi-dazo[1,2-a]pyrazin-8-yl]amino]-2-methylphenyl]methanone; hy-drochloride], the IC90 under setting [1] is 450 nM.
In the case of `Cc1cc(Nc2nccn3c(-c4ccc(OCC#N)c(F)c4Cl)cnc23)ccc1C(=O)N1CCN(C(=O)NC[C@H](C)N)CC1` [Example 165, N-[(2S)-2-aminopropyl]-4-[4-[[3-[2-chloro-4-(cyanomethoxy)-3-fluoro-phenyl]imidazo[1,2-a]pyrazin-8-yl]amino]-2-methyl-benzoyl]piperazine-1-carboxamide formate], the IC90 under setting [2] turned out to be 71 nM.
Take `COc1ccc(-c2cnc3c(Nc4ccc(C(=O)N5CCOCC5)c(C)c4)nccn23)cc1` [Example 6, (4-((3-(4-methoxyphenyl)imidazo[1,2-a]pyrazin-8-yl)amino)-2-methylphenyl)(morpholine)methanone]: the IC90 under setting [2] turned out to be 350 nM.
Regarding `COc1ccc(-c2cnc3c(Nc4ccc(C(=O)N5CCC(C(=O)NCC6CNCCN6)CC5)c(C)c4)nccn23)cc1F` (stereo not shown) [Example 403, 1-[4-[[3-(3-fluoro-4-methoxyphenyl)imidazo[1,2-a]pyrazin-8-yl]amino]-2-methylbenzoyl]-N-(piperazin-2-ylmethyl)piperidine-4-carboxamide; 2,2,2-trifluoroacetic acid], the IC90 under setting [1] amounted to 440 nM.
With `Cc1cc(Nc2nccn3c(-c4ccc(O[C@@H](C)C#N)c(F)c4F)cnc23)ccc1C(=O)N1CCN(C(=O)C2(O)CCNCC2)CC1` [Example 467, (2S)-2-[2,3-difluoro-4-[8-[4-[4-(4-hydroxypiperidine-4-carbonyl)piperazine-1-carbonyl]-3-methylanilino]imidazo[1,2-a]pyrazin-3-yl]phenoxy]propanenitrile; for-mic acid], the IC90 under setting [2] came to 180 nM.
With `COc1ccc(-c2cnc3c(Nc4ccc(C(=O)N5CCC(C(=O)NC6(C(=O)O)CC6)CC5)c(C)c4)nccn23)cc1F` [Example 433, 1-[[1-[4-[[3-(3-fluoro-4-methoxyphenyl)imidazo[1,2-a]pyrazin-8-yl]amino]-2-methylbenzoyl]piperidine-4-carbonyl]amino]cyclopropane-1-carboxylic acid], under setting [2], the IC90 was determined as 1600 nM.
For `Cc1cc(Nc2nccn3c(-c4ccc(OCC#N)c(F)c4Cl)cnc23)ccc1C(=O)N1CCC(C(=O)N2CCNC(CO)C2)CC1` (stereo not shown) [Example 97, 2-[3-chloro-2-fluoro-4-[8-[4-[4-[3-(hydroxymethyl)piperazine-1-carbonyl]piperidine-1-carbonyl]-3-methyl-anilino]imidazo[1,2-a]pyrazin-3-yl]phenoxy]acetonitrile trifluoroacetate], under setting [2], the IC90 was 96 nM.
In the case of `CN[C@@H]1CCN(C(=O)C2CCN(C(=O)c3ccc(Nc4nccn5c(-c6ccc(OC)c(F)c6)cnc45)cc3C)CC2)C1` [Example 50, (R)-(1-(4-((3-(3-fluoro-4-methoxyphenyl)imidazo[1,2-a]pyrazin-8-yl)amino)-2-methylbenzoyl)piperidin-4-yl)(3-(methylamino)pyrrolidin-1-yl)methanone hydrochloride], the IC90 under setting [1] stood at 290 nM.
Take `CCNC(=O)CN1CCN(C(=O)c2ccc(Nc3nccn4c(-c5ccc(OC(F)F)cc5)cnc34)cc2C)CC1` [Example 352, 2-[4-[4-[[3-[4-(difluoromethoxy)phenyl]imi-dazo[1,2-a]pyrazin-8-yl]amino]-2-methylbenzoyl]piperazin-1-yl]-N-ethylacetamide]: the IC90 under setting [1] worked out at 220 nM.
For `COc1ccc(-c2cnc3c(Nc4ccc(C(=O)N5CCN(C(=O)[C@@H]6C[C@@H](OC(=O)CN)CN6)CC5)c(C)c4)nccn23)c(F)c1F` [Example 562, [(3R,5S)-5-[4-[4-[[3-(2,3-difluoro-4-methoxy-phenyl)imidazo[1,2-a]pyrazin-8-yl]amino]-2-methyl-benzoyl]piperazine-1-carbonyl]pyrrolidin-3-yl]2-aminoacetate formate], the IC90 under setting [1] came out at 112 nM.
The same measure, in the same setting: with `Cc1cc(Nc2nccn3c(-c4ccc(OC(F)F)cc4)cnc23)ccc1C(=O)N1CCN(C(=O)[C@H]2CCNC[C@@H]2O)CC1` [Example 507, [4-[[3-[4-(difluoromethoxy)phenyl]imi-dazo[1,2-a]pyrazin-8-yl]amino]-2-methylphenyl]-[4-[(3R,4S)-3-hydroxypiperidine-4-carbonyl]piperazin-1-yl]methanone] the figure was 510 nM; with `CNCC(=O)N1CCN(C(=O)c2ccc(Nc3nccn4c(-c5ccc(OC(F)F)cc5)cnc34)cc2C)CC1` [Example 320, 1-[4-[4-[[3-[4-(difluoromethoxy)phenyl]imi-dazo[1,2-a]pyrazin-8-yl]amino]-2-methylbenzoyl]piperazin-1-yl]-2-(methylamino)ethanone; hy-drochloride], 280 nM.
As for `COc1ccc(-c2cnc3c(Nc4ccc(C(=O)N5CCC(CNCCC(=O)O)CC5)c(C)c4)nccn23)cc1` [Example 435, 3-[[1-[4-[[3-(4-methoxyphenyl)imidazo[1,2-a]pyrazin-8-yl]amino]-2-methylbenzoyl]piperidin-4-yl]methylamino]propanoic acid], the IC90 under setting [2] was determined as 3200 nM.
Consider `Cc1cc(Nc2nccn3c(-c4cc(F)c(F)c(F)c4)cnc23)ccc1C(=O)N1CCC(CN)CC1` [Example 111, (4-(aminomethyl)piperidin-1-yl)(2-methyl-4-((3-(3,4,5-trifluorophenyl)imidazo[1,2-a]pyrazin-8-yl)amino)phenyl)methanone], for which, under setting [2], the IC90 was determined as 4100 nM.
On the same count and under the same terms, with `CC[C@]1(O)CN[C@H](C(=O)N2CCN(C(=O)c3ccc(Nc4nccn5c(-c6ccc(OCC#N)c(F)c6F)cnc45)cc3C)CC2)C1` [Example 232, 2-[4-[8-[4-[4-[(2S,4R)-4-ethyl-4-hydroxy-pyrrolidine-2-carbonyl]piperazine-1-carbonyl]-3-methyl-anilino]imidazo[1,2-a]pyrazin-3-yl]-2,3-difluoro-phenoxy]acetonitrile formate] the figure was 83 nM.
For `COc1ccc(-c2cnc3c(Nc4ccc(C(=O)N5CCC(CNCC(=O)O)CC5)c(C)c4)nccn23)cc1` [Example 431, formic acid; 2-[[1-[4-[[3-(4-methoxyphenyl)imidazo[1,2-a]pyrazin-8-yl]amino]-2-methylbenzoyl]piperidin-4-yl]methylamino]acetic acid], the IC90 under setting [1] was found to be 1500 nM.
Consider `Cc1cc(Nc2nccn3c(-c4ccc(OC(F)F)cc4)cnc23)ccc1C(=O)N1CCC(C(=O)NC[C@@H](O)CN)CC1` [Example 554, (S)-N-(3-amino-2-hydroxypropyl)-1-(4-((3-(4-(difluoromethoxy)phenyl)imidazo [1,2-a]pyrazin-8-yl)amino)-2-methylbenzoyl)piperidine-4-carboxamide formate], for which, under setting [1], the IC90 was 344 nM.
As to `CCc1cc(Nc2nccn3c(-c4ccc(OCC#N)c(F)c4F)cnc23)ccc1C(=O)N1CCC(C(=O)N2CCN[C@@H](CO)C2)CC1` [Example 540, 2-[4-[8-[3-ethyl-4-[4-[(3R)-3-(hydroxymethyl)piperazine-1-carbonyl]piperidine-1-carbonyl]anilino]imidazo[1,2-a]pyrazin-3-yl]-2,3-difluorophenoxy]acetonitrile; 2,2,2-trifluoroacetic acid], the IC90 under setting [1] was 90 nM.
Turning to `Cc1cc(Nc2nccn3c(-c4ccc(OC(C)C#N)c(F)c4F)cnc23)ccc1C(=O)N1CCN(CCCN(C)C)CC1` (stereo not shown) [Example 237, 2-[4-[8-[4-[4-[3-(dimethylamino)pro-pyl]piperazine-1-carbonyl]-3-methyl-anilino]imidazo[1,2-a]pyrazin-3-yl]-2,3-difluoro-phenoxy]propanenitrile formate], the IC90 under setting [2] turned out to be 370 nM.
In the case of `COc1ccc(-c2cnc3c(Nc4ccc(C(=O)N5CCN(C(=O)N[C@H](C)CN)CC5)c(C)c4)nccn23)c(Cl)c1F` [Example 166, formate], under setting [2], the IC90 came out at 200 nM.
